Measured values taken from publication PMC5166568, “Flexible synthesis of cationic peptide–porphyrin derivatives for light-triggered drug delivery and photodynamic therapy” (Organic & Biomolecular Chemistry, 2016).

Assays:
MC28 cells [1] = type: cell-based, rat
MC28 cells [2] = tested on: MC28 cells
MC28 cells [3] = tested on: MC28 cells; remark: listed apart in the source

saporin
reduction in viability using saporin alone (MC28 cells [1]): approximately 10%

N=C(N)NCCC[C@H](NC(=O)CN)C(=O)N[C@@H](CCCCN)C(=O)N[C@@H](CCCCN)C(=O)N[C@@H](CCCNC(=N)N)C(=O)N[C@@H](CCCNC(=N)N)C(=O)N[C@@H](CCC(N)=O)C(=O)N[C@@H](CCCNC(=N)N)C(=O)N[C@@H](CCCNC(=N)N)C(=O)N[C@@H](CCCNC(=N)N)C(=O)NCC(=O)N[C@@H](Cc1ccc(O)cc1)C(=O)N[C@@H](CCCCN)C(=O)N[C@@H](CSC1CC(=O)N(CCC(=O)Nc2ccc(-c3c4nc(c(-c5ccccc5)c5ccc([nH]5)c(-c5ccccc5)c5nc(c(-c6ccccc6)c6ccc3[nH]6)C=C5)C=C4)cc2)C1=O)C(N)=O (some centres unmarked) [Compound 20]
LD50 PDT (MC28 cells [2]; 18 h): 94 ± 6 nM
LD50 dark (MC28 cells [2]; 24 h): ≫1 μM
cellular uptake (MC28 cells [3]): efficient uptake
subcellular localisation (MC28 cells [3]): Endolysosomal localisation
